Results published in US20260049089A1, “KRAS INHIBITOR COMPOUND” (SHANGHAI APEIRON THERAPEUTICS COMPANY LIMITED, priority 2022, published 2026).
Where two headings read alike, the source gives them in different places.

Legend:
pERK in AGS cells = experiment: ERK phosphorylation cell assay, AGS; format: cell-based; conditions: 3 hours compound incubation, read-out: pERK AGS_IC50
Description: (§1) • Day 1: AGS cells were seeded into a 384-well cell culture plate and incubated overnight at 37° C. with 5% CO2 in a cell culture incubator. • Day 2: Compounds were added to the plate using an Echo550 liquid handler, followed by incubation at 37° C. with 5% CO2 in a cell culture incubator for 3 hours. Subsequently, the cells were fixed with paraformaldehyde, permeabilized with methanol, and blocked with blocking buffer. A primary antibody mixture (rabbit anti-pERK, mouse anti-GAPDH) was added, and the plate was incubated overnight at 4° C. • Day 3: The primary antibodies were removed, and a secondary antibody mixture (goat anti-rabbit 800CW, goat anti-mouse 680RD) was added. The plate was incubated at room temperature in the dark. After three washes with PBST, the plate was inverted and centrifuged for 1 minute. Fluorescence signal values were read using an Odyssey CLx imaging system.
(§2) [formula] • Negative control: DMSO • Positive control: 10 μM Reference • Fitted using XLFit 5.0 with the following parameters:
(§3) [formula] • X: Log of compound concentration • Y: Mean relative expression levels of p-ERK across replicates

pERK in AsPC-1 cells = experiment: ERK phosphorylation cell assay, AsPC-1; format: cell-based; conditions: read-out: pERK AsPC-1_IC50
Description: [Worded in the source for another cell line; this cell line is reported under the same test.] as §1, §2, §3

[1] = Homo sapiens, ASPC1, AsPC-1 cells

Row | SMILES | IC50 (pERK in AGS cells; Homo sapiens, AGS, 3 h) [µM] | IC50 (pERK in AsPC-1 cells; [1]) [µM] | IC50 (pERK in AGS cells) [µM] | IC50 (pERK in AsPC-1 cells; AsPC-1 cells) [µM]
1 | C[C@@]1(O)CCCN(c2nc(OCC34CCC(CC3)CO4)nc3c(F)c4c(cc23)NCCCCCc2c(F)ccc3cc(O)cc-4c23)C1 [Example 18A] | > 10 | > 10 |  | 
2 | C[C@@]1(O)CCCN(c2nc(OCC34CCCN3C3CC3C4)nc3c(F)c4c(cc23)NCCCCCc2c(F)ccc3cc(O)cc-4c23)C1 (stereo partly drawn) [Example 37, 3,15-Difluoro-13-((hexahydrocyclopropano[b]pyrrolizin-5a(3H)-yl)methoxy)-11-((R)-3-hydroxy-3-methylpiperidin-1-yl)-4,5,6,7,8,9-hexahydro-naphtho[1′,8′:4,5,6][1]azacycloundecino[2,3-g]quinazoline-17-ol] | 0.546 | 3.51 |  | 
3 | C[C@@]1(O)CCCN(c2nc(OC[C@@]34CCCN3C[C@H](F)C4)nc3c(F)c4c(cc23)NCCOCCc2c(F)ccc3cccc-4c23)C1 (single isomer, unassigned) [Example 52A] |  |  | 2 | 3.1
4 | C=C1CN2CCCC2(COc2nc(N3CCC[C@@](C)(O)C3)c3cc4c(c(F)c3n2)-c2cc(O)cc3ccc(F)c(c23)CC/C=C\CN4)C1 (stereo partly drawn) [Example 32, (Z)-3,15-difluoro-11-((R)-3-hydroxy-3-methylpiperidin-1-yl)-13-((2-methylenetetrahydro-1H-pyrazin-7a(5H)-yl)methoxy)-4,5,8,9-tetrahydronaphtho[1′,8′:4,5,6][1]azacycloondecano[2,3-g]quinazolin-17-ol] | 0.652 | 1.14 |  | 
5 | C[C@@]1(O)CCCN(c2nc(OCC34CCCN3CC(=C(F)F)C4)nc3c(F)c4c(cc23)NCCCCCc2c(F)ccc3cc(O)cc-4c23)C1 (some centres unmarked) [Example 29] | 5.42 | 4.53 |  | 
6 | C=C1CN2CC(F)(F)CC2(COc2nc(N3CCC[C@@](C)(O)C3)c3cc4c(c(F)c3n2)-c2cc(O)cc3ccc(F)c(c23)CCCCCN4)C1 (single isomer, unassigned) [Example 57B] |  |  | > 10 | > 10
7 | C[C@@]1(O)CCCN(c2nc(OCC34CCCN3CCC4)nc3c(F)c4c(cc23)NCCCCCc2c(F)ccc3cc(O)cc-4c23)C1 (single isomer, unassigned) [Example 21B] |  |  | 0.517 | 4.62
8 | CC1(O)CCCN(c2nc(OCC34CCC(CC3)CO4)nc3c(F)c4c(cc23)NCCCCCc2c(F)ccc3cc(O)cc-4c23)C1 [Example 18B, (R)-13-(((2-oxabicyclo[2.2.2]octan-1-yl)methoxy)-3,15-difluoro-11-(3-hydroxy-3-methylpiperidin-1-yl)-4,5,6,7,8,9-hexahydro-naphtho[1′,8′:4,5,6][1]azacycloundecino[2,3-g]quinazoline-17-ol] |  |  | > 10 | > 10
9 | C=C1CN2CCC[C@@]2(COc2nc(N3CCC[C@@](C)(O)C3)c3cc4c(c(F)c3n2)-c2cc(OC(=O)CCCCCCCCC)cc3ccc(F)c(c23)CCOCCN4C)C1 [Example 51, 3,15-difluoro-11-((R)-3-hydroxy-3-methylpiperidin-1-yl)-9-methyl-13-(((S)-2-methylenetetrahydro-1H-pyrazin-7a(5H)-yl)methoxy)-4,5,8,9-tetrahydro-7H-naphtho[1′,8′:7,8,9111]oxa[4]azacycloundeca[5,6-g]quinazoline-17-yl decanoate] | 0.0024 | 0.0061 |  | 
10 | CCN1CCCc2c(F)ccc3cc(O)cc(c23)-c2c(cc3c(N4CC5CCC(C4)N5)nc(OC[C@@]45CCCN4C[C@H](F)C5)nc3c2F)C1=O [Example 13, 10-((1R,5S)-3,8-diazabicyclo[3.2.1]oct-3-yl)-7-ethyl-3,14-difluoro-12-(((2R,7aS)-2-fluorotetrahydro-1H-pyrazin-7a(5H)-yl)methoxy)-16-hydroxy-4,5,6,7-tetrahydro-8H-naphtho[1′,8′:5,6,7]acrylo[3,4-g]quinazolin-8-one] | 3.95 | 8.04 |  | 
